This passage reports GI50 and TGI results from PubChem BioAssay (NCI).

Values joined by “and” are separate entries in the source; they are usually repeats but may differ in a detail not shown here. Equal values may be shown once.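 A five-concentration, 48-hour dose response in 96-well plates underlies each endpoint, interpolated linearly between surrounding concentrations. GI50 is the concentration that inhibits growth by half. TGI marks complete inhibition of growth.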

Test systems include K-562 leukemia; SK-MEL-5 melanoma; RPMI-8226 leukemia; EKVX NSCLC; HS 578T breast; SK-MEL-2 melanoma; 786-0 renal; ACHN renal; RXF 393 renal; HCC-2998 colon.
What all share (assay): NCI anticancer screen, dose series, 48 h

Consider `Cc1ccc(N(/C=C/C(=O)C(F)(F)F)CC(=O)c2ccc(Cl)c(Cl)c2)cc1`, for which the GI50 in the assay on K-562 leukemia was 3.37 µM; in the assay on SK-MEL-5 melanoma, 5.64 µM; with RPMI-8226 leukemia, 10.8 µM; in the assay on EKVX NSCLC it was 3.54 µM; with HS 578T breast, 2.35 µM; with SK-MEL-2 melanoma, 3.26 µM. Besides, the GI50 in the assay with 786-0 renal is 13.5 µM; in the assay with ACHN renal it was 12.2 µM; in the assay with RXF 393 renal it was 3.82 µM; with HCC-2998 colon, 1.45 µM. For the same compound, the TGI with K-562 leukemia was 11.7 µM; in the assay on SK-MEL-5 melanoma, 19.6 µM; in the assay on RPMI-8226 leukemia, 27 µM; with EKVX NSCLC it was 18.9 µM; in the assay on HS 578T breast, 17.1 µM; in the assay with SK-MEL-2 melanoma, 16.1 µM. Moreover, the TGI in the assay with 786-0 renal amounted to 26.3 µM; with ACHN renal, 24.6 µM; in the assay on RXF 393 renal, 19 µM; in the assay with HCC-2998 colon, 14.8 µM.
For `Cc1cccc2c(N=Nc3ccccc3[N+](=O)[O-])c(O)[nH]c12`, the TGI with K-562 leukemia is above 100 µM; with SK-MEL-5 melanoma, above 81.9 µM; in the assay on RPMI-8226 leukemia it was above 89.3 µM; in the assay with EKVX NSCLC, 33.6 µM; with HS 578T breast it was 16.4 µM; in the assay with SK-MEL-2 melanoma, above 71.1 µM. The TGI in the assay on 786-0 renal is 11.8 µM; in the assay on ACHN renal, 18.8 µM; with RXF 393 renal, 16.6 µM; with HCC-2998 colon, above 31.6 µM.
As to `CNC12C3C4C1C1C2C3C41C(=O)N[C@H](C(=O)N(C)[C@H](C[C@@H](OC(C)=O)c1nc(C(=O)N[C@@H](Cc2ccccc2)C[C@H](C)C(=O)OC)cs1)C(C)C)C1CC1` (stereo partly specified), the GI50 in the assay with K-562 leukemia was 0.0667 µM; in the assay with SK-MEL-5 melanoma it was 0.155 µM; in the assay with RPMI-8226 leukemia, 0.0705 µM; with EKVX NSCLC, 1.95 µM; in the assay on HS 578T breast it was 0.354 µM; in the assay with SK-MEL-2 melanoma, 0.189 µM. For the same compound, the GI50 with 786-0 renal is 0.577 µM; with ACHN renal, 0.901 µM; with RXF 393 renal, 0.213 µM; in the assay with HCC-2998 colon, 0.319 µM. Moreover, the TGI in the assay with K-562 leukemia is above 15 µM; in the assay on SK-MEL-5 melanoma, 1.41 µM; with RPMI-8226 leukemia, 1.89 µM; in the assay on EKVX NSCLC, above 15 µM; with HS 578T breast it was above 10.3 µM; in the assay on 786-0 renal, above 15 µM. Moreover, the TGI with ACHN renal was above 15 µM; in the assay with RXF 393 renal, 1.33 µM; with HCC-2998 colon it was 2.67 µM.
As to `CCOC(=O)Nc1ccc(C(=O)/C=C/c2ccccc2)cc1`, the GI50 with K-562 leukemia was 8.28 µM; with SK-MEL-5 melanoma it was 27.1 µM; in the assay with RPMI-8226 leukemia, 3.76 µM; with EKVX NSCLC, 37.5 µM; in the assay with HS 578T breast, 30.9 µM; with SK-MEL-2 melanoma, 25.9 µM. The GI50 was 26.3 µM with 786-0 renal, 22.2 µM in the assay on ACHN renal, 22.5 µM in the assay with RXF 393 renal and 17.1 µM with HCC-2998 colon. Besides, the TGI in the assay on K-562 leukemia is above 100 µM; in the assay with SK-MEL-5 melanoma it was above 100 µM; in the assay with RPMI-8226 leukemia, 22.5 µM; in the assay with EKVX NSCLC it was above 100 µM; in the assay with HS 578T breast it was 86 µM; in the assay with SK-MEL-2 melanoma it was 69.7 µM. Also, the TGI came out at 81.5 µM in the assay on 786-0 renal, 52.3 µM in the assay on ACHN renal, 49.1 µM with RXF 393 renal and 31.6 µM in the assay on HCC-2998 colon.
As to `CNC(=O)/C(=C/c1ccc(OC)cc1)c1cc(OC)c(OC)c(OC)c1`, the TGI in the assay with K-562 leukemia was above 80.9 µM; in the assay with SK-MEL-5 melanoma, above 36.6 µM; in the assay with RPMI-8226 leukemia, above 100 µM; in the assay with EKVX NSCLC it was above 100 µM; in the assay with HS 578T breast, 5.71 µM; in the assay on SK-MEL-2 melanoma, above 100 µM. In addition, the TGI was above 100 µM in the assay with 786-0 renal, above 100 µM in the assay with ACHN renal, 11.8 µM in the assay with RXF 393 renal and 17.7 µM in the assay on HCC-2998 colon.
Consider `COc1cccc2c1C(=O)c1c(O)c3c(c(O)c1C2=O)C[C@@](O)(C(C)=O)C[C@@H]3OC1CC(O)C(O)C(C)O1` (stereo partly specified), for which the TGI is 14.5 µM in the assay on K-562 leukemia; 5.06 µM and 2.78 µM in the assay with SK-MEL-5 melanoma; 5.5 µM and 8.53 µM in the assay with RPMI-8226 leukemia; 27.2 µM with EKVX NSCLC; 6.93 µM in the assay on HS 578T breast; 9.44 µM and 15.2 µM with SK-MEL-2 melanoma. For the same compound, the TGI in the assay with 786-0 renal is 8.12 µM and 19.4 µM; in the assay on ACHN renal it was 2.41 µM and 2.85 µM; in the assay with RXF 393 renal it was 9.33 µM; in the assay on HCC-2998 colon, 12.8 µM. Moreover, the GI50 in the assay with ACHN renal was 0.397 µM.
Consider `O=C1c2ccccc2C(=O)c2sc(Nc3ccc(Cl)cc3)nc21`, for which the TGI was determined as 5.12 µM in the assay on K-562 leukemia; 3.6 µM in the assay with SK-MEL-5 melanoma; 4.73 µM with RPMI-8226 leukemia; 17.9 µM with EKVX NSCLC; 14.1 µM in the assay on HS 578T breast; 8.94 µM with SK-MEL-2 melanoma. In addition, the TGI with 786-0 renal stood at 3.93 µM; in the assay with ACHN renal, 3.06 µM; in the assay with RXF 393 renal it was 3.65 µM; with HCC-2998 colon, 7.43 µM. Moreover, the GI50 with HS 578T breast was 2.92 µM.
As for `COc1ccc2c(c1)C(=O)c1c-2n(CCCN=[N+]=[N-])c(=O)c2cc(N)ccc12`, the GI50 in the assay with K-562 leukemia, with SK-MEL-5 melanoma, in the assay on RPMI-8226 leukemia, with EKVX NSCLC, in the assay with HS 578T breast and in the assay on SK-MEL-2 melanoma was above 100 µM throughout. The GI50 in the assay with 786-0 renal was above 100 µM; in the assay on ACHN renal, above 100 µM; in the assay with RXF 393 renal it was 57.6 µM; in the assay on HCC-2998 colon, above 100 µM. The TGI in the assay with K-562 leukemia, with SK-MEL-5 melanoma, with RPMI-8226 leukemia, in the assay with EKVX NSCLC, in the assay on HS 578T breast and with SK-MEL-2 melanoma was above 100 µM each time. The TGI in the assay on 786-0 renal, in the assay on ACHN renal, in the assay on RXF 393 renal and in the assay with HCC-2998 colon was above 100 µM in each case.
For the compound `CC(=O)OC1CC2(O)C(CCC3(C)C(c4ccc(=O)oc4)CCC32O)C2(C)CCC(OC3OC(CO)C(O)C(O)C3O)C=C12` (stereo unspecified), the GI50 is 0.0295 µM with K-562 leukemia; 0.0196 µM with SK-MEL-5 melanoma; 0.0309 µM with RPMI-8226 leukemia; 0.0135 µM in the assay with EKVX NSCLC; 0.0103 µM in the assay with HS 578T breast; 0.0474 µM with SK-MEL-2 melanoma. Moreover, the GI50 in the assay with 786-0 renal is 0.0129 µM; with ACHN renal, below 0.01 µM; with RXF 393 renal, 0.0199 µM; in the assay on HCC-2998 colon, 0.0735 µM. Besides, the TGI is 0.175 µM in the assay on K-562 leukemia; 0.0672 µM with SK-MEL-5 melanoma; 0.162 µM in the assay with RPMI-8226 leukemia; 0.0419 µM with EKVX NSCLC; 0.701 µM with HS 578T breast; 0.413 µM with SK-MEL-2 melanoma. The TGI in the assay with 786-0 renal was determined as 0.03 µM; in the assay on ACHN renal, 0.036 µM; in the assay on RXF 393 renal it was 0.0538 µM; with HCC-2998 colon, 0.419 µM.
`Cc1cc(S(=O)(=O)Nc2nc3ccccc3[nH]2)c(SCc2ccccc2)cc1Cl`: the GI50 is 66.3 µM in the assay with K-562 leukemia; above 100 µM in the assay with SK-MEL-5 melanoma; 28.9 µM in the assay with RPMI-8226 leukemia; above 100 µM in the assay on EKVX NSCLC; 78.1 µM in the assay on HS 578T breast; above 100 µM in the assay on SK-MEL-2 melanoma. In addition, the GI50 in the assay on 786-0 renal is 62.9 µM; in the assay with ACHN renal it was 32.8 µM; in the assay on RXF 393 renal it was above 100 µM; in the assay on HCC-2998 colon it was 21.4 µM. Moreover, the TGI in the assay on K-562 leukemia, with SK-MEL-5 melanoma, with RPMI-8226 leukemia, in the assay with EKVX NSCLC, in the assay with HS 578T breast and in the assay on SK-MEL-2 melanoma was above 100 µM in each case. Moreover, the TGI with 786-0 renal, in the assay on ACHN renal, in the assay with RXF 393 renal and with HCC-2998 colon was above 100 µM in each case.
With `NC(=S)N/N=C/c1ccc(OC(=O)COc2ccccc2)cn1`, the GI50 is 2.88 µM with K-562 leukemia; 3.12 µM with SK-MEL-5 melanoma; 7.47 µM with RPMI-8226 leukemia; 40 µM in the assay with EKVX NSCLC; 68.4 µM in the assay with HS 578T breast; above 100 µM in the assay with SK-MEL-2 melanoma. Also, the GI50 was 3.89 µM in the assay with 786-0 renal, 3.65 µM with ACHN renal, 5.34 µM with RXF 393 renal and 8.37 µM in the assay with HCC-2998 colon. In addition, the TGI in the assay with K-562 leukemia was above 100 µM; in the assay on SK-MEL-5 melanoma it was 29.1 µM; with RPMI-8226 leukemia, above 100 µM; with EKVX NSCLC it was above 100 µM; with HS 578T breast, above 100 µM; with SK-MEL-2 melanoma, above 100 µM. In addition, the TGI in the assay with 786-0 renal, in the assay on ACHN renal, in the assay on RXF 393 renal and with HCC-2998 colon was above 100 µM in each case.
`N#CSCC1CC(O)(c2ccccc2)CC(c2ccc(Cl)cc2)O1` (stereo unspecified): the GI50 in the assay with K-562 leukemia was 2.41 µM; in the assay on SK-MEL-5 melanoma, 0.559 µM; with RPMI-8226 leukemia, 1.26 µM; in the assay on EKVX NSCLC it was 4.19 µM; in the assay on HS 578T breast, 3.24 µM; with SK-MEL-2 melanoma, 1.89 µM. The GI50 in the assay on 786-0 renal is 2.14 µM; with ACHN renal it was 2.78 µM; with RXF 393 renal, 1.94 µM; in the assay with HCC-2998 colon it was 8.56 µM. Moreover, the TGI in the assay on K-562 leukemia came to 9.77 µM; in the assay with SK-MEL-5 melanoma it was 14.9 µM; in the assay on RPMI-8226 leukemia it was 5.39 µM; in the assay on EKVX NSCLC, 17.7 µM; in the assay with HS 578T breast it was 13.2 µM; with SK-MEL-2 melanoma, 3.78 µM. Also, the TGI worked out at 4.66 µM in the assay with 786-0 renal, 8.25 µM with ACHN renal, 3.72 µM in the assay on RXF 393 renal and 21.5 µM with HCC-2998 colon.
